Test results reported in PubChem BioAssay AID2060331 (Molecular Pharmacology Branch, DTP, NCI, 2025).
Several values for one entry are separate records, joined by “and”; a condition that tells them apart may be missing. Equal entries are not always repeated.

System: Hs578T multi-cell spheroids, viability
Assay: Anticancer human tumor Hs578T cell line growth inhibition [IpAb];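 further: drug exposure lasted 7 days before readout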
Settings: for viability, T/C: stronger effect = lower value
Source text: Combinatorial screen of targeted agents with ipatasertib and abemaciclib in multi-cell type tumor spheroids
A high-throughput screen of multi-cell type tumor spheroids was designed to identify active combinations of targeted small molecules and ipatasertib or abemaciclib. Complex spheroids include a stromal component modeled by human endothelial cells (HUVEC) and fibroblasts modeled by human mesenchymal stem cells (MSCs). The concentration ranges selected for each drug and investigational agent were based upon clinically achievable concentrations if the clinical Cmax of the agent was known.
Compounds. The drugs and investigational agents: ipatasertib (NSC767898), abemaciclib(NSC768073), selumetinib (NSC741078), trametinib (758246), adavosertib (NSC754352), everolimus (NSC733504), sapanisertib (NSC764658), vemurafenib (NSC761431), venetoclax (NSC766270), copanlisib (NSC809693), apelisib (NSC765974), palbociblib (NSC758247), vemurafenib (NSC761431), dabrafenib (NSC764134), ravoxertinib (NSC781343), BMS-387032 (NSC767048), sotorasib (NSC818433), talazoparib (NSC767125) and afursertib (NSC778305), were obtained from the National Cancer Institute (NCI) Developmental Therapeutics Program Chemical Repository. The FDA-approved anticancer drug set is available from the NCI Developmental Therapeutics Program. […] The stock solutions were prepared in dimethyl sulfoxide (DMSO, Sigma-Aldrich, St. Louis, MO, cat. D2650) at 800-fold the tested concentration and stored at -70 degrees C prior to their use. All drugs and investigational agents were tested over a range starting from a high concentration at or near the clinical Cmax and decreasing in half-log increments. If the clinical Cmax for an agent had not been determined, the highest concentration tested was 10 microM.
NCI60 Cell Culture. NCI60 cell lines were obtained from the NCI Developmental Therapeutics Program Tumor Repository. For each lot of cells, the Repository performed Applied Biosystems AmpFLSTR Identifiler testing with PCR amplification to confirm consistency with the published Identifier STR profile for each cell line. Cells were kept in continuous culture for no more than 20 passages. The optimal seeding densities for each of the cell lines at each time point assessed were determined prior to performing the concentration response studies. Briefly, the NCI60 human tumor lines were grown as monolayers in RPMI 1640 medium supplemented with 10% FBS and 2 mmol/L L-glutamine.
An additional 9 lines were from the NCI60 cell line panel including MDA-MB-231 breast carcinoma, MDA-MB-468 breast carcinoma, MCF7 breast carcinoma, Hs578T breast carcinoma, MALME-3M melanoma, SK-MEL-2 melanoma, SK-OV-3 ovarian carcinoma, DU-145 prostate carcinoma, PC-3 prostate carcinoma, all cell lines along with major genetic alterations are listed on Table 2. Pooled donor human umbilical vein endothelial cells (HUVEC, Lonza, cat. CC-2519) and human mesenchymal stem cells (hMSC, Lonza, cat. PT-2501) were purchased from Lonza (Walkersville, MD).
PDMR cell lines were grown in complete medium (DC medium): Dulbecco's modified Eagle's medium (DMEM)/F12 supplemented with 5% fetal bovine serum (FBS), 2 mM L-glutamine, 100 U/mL penicillin and 100 µg/ml streptomycin, 0.4 µg/ml hydrocortisone, 10 ng/ml epidermal growth factor (EGF) recombinant human protein, 24 µg/mL adenine, and 0.1 mg/mL primocin. During culture from frozen stock vials, PDMR cells were cultured in the same medium containing 10 µM Y-27632 (see Table 3). The PDCs were cultured in complete DMEM/F12 media without 10 microM Y-27632 dihydrochloride for at least two passages prior to the screen. The pooled donor HUVEC and hMSC were cultured in endothelial cell growth medium 2 (PromoCell, Heidelberg, Germany, cat. C-22011) and mesenchymal stem cell growth medium 2 (PromoCell, cat. C-28009), respectively. For all experiments, HUVEC and hMSC were used at passages </=5.
[…]

Question: Which viability, T/C (compound 0.0316 µM) does the source give for C=CC(=O)N1CCN(c2nc(=O)n(-c3c(C)ccnc3C(C)C)c3nc(-c4c(O)cccc4F)c(F)cc23)C(C)C1 (configuration not stated) here?
Answer: 103% and 104%

Question: And the viability, T/C (compound 0.1 µM)?
Answer: 103% and 109%

Question: What about the viability, T/C (compound 0.316 µM) of the same compound?
Answer: 113% and 116%

Question: And the viability, T/C (compound 1 µM)?
Answer: 108% and 111%

Question: What about the viability, T/C (compound 3.16 µM) of the same compound?
Answer: 106% and 95.6%

Question: And the viability, T/C (compound 10 µM)?
Answer: 73.4% and 68.4%

Question: What about the IC50 (curve of compound) of the same compound?
Answer: > 10000 nM

Question: C=CCn1c(=O)c2cnc(Nc3ccc(N4CCN(C)CC4)cc3)nc2n1-c1cccc(C(C)(C)O)n1 was tested. Which viability, T/C (compound 0.0316 µM) did it give?
Answer: 98.6% and 100%

Question: And the viability, T/C (compound 0.1 µM)?
Answer: 77.7% and 83.3%

Question: And the viability, T/C (compound 0.316 µM)?
Answer: 46.2% and 47.5%

Question: And the viability, T/C (compound 1 µM)?
Answer: 26% and 25.8%

Question: And the viability, T/C (compound 3.16 µM)?
Answer: 15.1% and 19.1%

Question: And the viability, T/C (compound 10 µM)?
Answer: 17.7% and 17.6%

Question: What about the IC50 (curve of compound) of the same compound?
Answer: 275 nM and 295 nM

Question: For CC(=O)c1c(C)c2cnc(Nc3ccc(N4CCNCC4)cn3)nc2n(C2CCCC2)c1=O, which viability, T/C (compound 0.000949 µM) is on record?
Answer: 105% and 108%

Question: And the viability, T/C (compound 0.003 µM)?
Answer: 90.8% and 99.7%

Question: What about the viability, T/C (compound 0.00949 µM) of the same compound?
Answer: 92.8% and 87.4%

Question: And the viability, T/C (compound 0.03 µM)?
Answer: 82.7% and 87.7%

Question: And the viability, T/C (compound 0.0949 µM)?
Answer: 73.4% and 73.1%

Question: What about the viability, T/C (compound 0.3 µM) of the same compound?
Answer: 63.6% and 72.5%

Question: What about the IC50 (curve of compound) of the same compound?
Answer: > 300 nM

Question: How did the viability, T/C (compound 0.00949 µM) turn out when CC(C)(C)c1cnc(CSc2cnc(NC(=O)C3CCNCC3)s2)o1 was run?
Answer: 102% and 104%

Question: And the viability, T/C (compound 0.03 µM)?
Answer: 113% and 114%

Question: And the viability, T/C (compound 0.0949 µM)?
Answer: 122% and 107%

Question: And the viability, T/C (compound 0.3 µM)?
Answer: 4.21% and 2.95%

Question: What about the viability, T/C (compound 0.949 µM) of the same compound?
Answer: 2.73% and 3.15%

Question: And the viability, T/C (compound 3 µM)?
Answer: 2.69% and 3.46%

Question: And the IC50 (curve of compound)?
Answer: 184 nM and 178 nM

Question: For CC(C)NCC(C(=O)N1CCN(c2ncnc3c2C(C)CC3O)CC1)c1ccc(Cl)cc1 (configuration not stated), which viability, T/C (compound 0.1 µM) is on record?
Answer: 96.2% [middle of 13 runs]

Question: What about the viability, T/C (compound 0.316 µM) of the same compound?
Answer: 83.9% [middle of 13 runs]

Question: And the viability, T/C (compound 1 µM)?
Answer: 66.8% [middle of 13 runs]

Question: And the viability, T/C (compound 3.16 µM)?
Answer: 53.8% [middle of 12 runs]

Question: And the viability, T/C (compound 10 µM)?
Answer: 45% [middle of 13 runs]

Question: CC(C)n1nc(-c2ccc3oc(N)nc3c2)c2c(N)ncnc21 was tested. Which viability, T/C (compound 0.000316 µM) did it give?
Answer: 95.3% and 94.5%

Question: What about the viability, T/C (compound 0.001 µM) of the same compound?
Answer: 92.4% and 104%

Question: And the viability, T/C (compound 0.00316 µM)?
Answer: 74.8% and 76.7%

Question: What about the viability, T/C (compound 0.01 µM) of the same compound?
Answer: 43.1% and 49.1%

Question: And the viability, T/C (compound 0.0316 µM)?
Answer: 20.7% and 20.5%

Question: What about the viability, T/C (compound 0.1 µM) of the same compound?
Answer: 15.8% and 14.6%

Question: And the IC50 (curve of compound)?
Answer: 7.72 nM and 9.02 nM

Question: How did the viability, T/C (compound 0.0316 µM) turn out when CC1(C)CCC(CN2CCN(c3ccc(C(=O)NS(=O)(=O)c4ccc(NCC5CCOCC5)c([N+](=O)[O-])c4)c(Oc4cnc5[nH]ccc5c4)c3)CC2)=C(c2ccc(Cl)cc2)C1 was run?
Answer: 105% and 104%

Question: And the viability, T/C (compound 0.1 µM)?
Answer: 103% and 110%

Question: And the viability, T/C (compound 0.316 µM)?
Answer: 99.5% and 102%

Question: And the viability, T/C (compound 1 µM)?
Answer: 104%

Question: And the viability, T/C (compound 3.16 µM)?
Answer: 89.2% and 92.6%

Question: What about the viability, T/C (compound 10 µM) of the same compound?
Answer: 17% and 19%

Question: And the IC50 (curve of compound)?
Answer: 5910 nM and 6160 nM

Question: Which results are given for CCCS(=O)(=O)Nc1ccc(F)c(C(=O)c2c[nH]c3ncc(-c4ccc(Cl)cc4)cc23)c1F?
Answer: viability, T/C (compound 0.0316 µM): 95.3% and 98.5%; viability, T/C (compound 0.1 µM): 101% and 109%; viability, T/C (compound 0.316 µM): 109% and 105%; viability, T/C (compound 1 µM): 96.1% and 102%; viability, T/C (compound 3.16 µM): 81.1% and 85.8%; viability, T/C (compound 10 µM): 12.5% and 11.4%; IC50 (curve of compound): 5310 nM and 5510 nM

Question: CCN1CCN(Cc2ccc(Nc3ncc(F)c(-c4cc(F)c5nc(C)n(C(C)C)c5c4)n3)nc2)CC1 was tested. Which viability, T/C (compound 0.01 µM) did it give?
Answer: 97.2% [middle of 13 runs]

Question: And the viability, T/C (compound 0.0316 µM)?
Answer: 90.4% [middle of 13 runs]

Question: And the viability, T/C (compound 0.1 µM)?
Answer: 83.7% [middle of 13 runs]

Question: What about the viability, T/C (compound 0.316 µM) of the same compound?
Answer: 83.3% [middle of 13 runs]

Question: And the viability, T/C (compound 1 µM)?
Answer: 94.2% [middle of 13 runs]

Question: What about the IC50 (compound alone, run of 06/01/2021) of the same compound?
Answer: > 1000 nM

Question: What does the source list for COc1c(OCCCN2CCOCC2)ccc2c3n(c(=NC(=O)c4cnc(N)nc4)nc12)CCN3?
Answer: viability, T/C (compound 0.00316 µM): 88.8% and 99.7%; viability, T/C (compound 0.01 µM): 66.7% and 76.7%; viability, T/C (compound 0.0316 µM): 47.2% and 49%; viability, T/C (compound 0.1 µM): 29.4%; viability, T/C (compound 0.316 µM): 14.3% and 13.7%; viability, T/C (compound 1 µM): 8.6% and 5.54%; IC50 (curve of compound): 26 nM and 31.8 nM
